This is an account of results in patent publication US7803830B2, “3-amino-1-arylpropyl indoles and AZA-substituted indoles and uses thereof” (Roche Palo Alto LLC, priority 2005, dated 2010).

Counter-ions that a name gives are not always drawn.

`CNCCC(c1ccc2cc[nH]c2c1)c1ccccn1` (stereo not shown) (as salt: HCl) (hydrate or solvate) [compound 21] yielded a melting point greater than 300 °C. For `CNCCC(c1cccc(Cl)c1)c1ccc2cc[nH]c2c1` (stereo not shown) (as salt: HCl) [compound 36, [3-(3-Chloro-phenyl)-3-(1H-indol-6-yl)-propyl]-methyl-amine] the value was 62 to 63 °C; for `CNCCC(c1ccccc1)c1cccc2[nH]ncc12` (stereo not shown) (as salt: HCl) [compound 49, [3-(1H-Indazol-4-yl)-3-phenyl-propyl]-methyl-amine], 130.6 to 133.1 °C; for `CNCC[C@H](c1ccccc1)c1cccc2cn[nH]c12` (as salt: TFA) [compound 55, [(R)-3-(1H-Indazol-7-yl)-3-phenyl-propyl]-methyl-amine], 61.9 to 65.7 °C.

`CNCC[C@@H](c1ccccc1)c1cccc2cn[nH]c12` (as salt: TFA) [compound 56, [(S)-3-(1H-Indazol-7-yl)-3-phenyl-propyl]-methyl-amine] gave a melting point of 62 to 68.1 °C. For `CNCCC(c1ccccc1)c1ccc2[nH]nc(C)c2c1` (stereo not shown) (as salt: TFA) [compound 58, Methyl-[3-(3-methyl-1H-indazol-5-yl)-3-phenyl-propyl]-amine] the value was 64.5 to 66 °C.

Compound `CNCCC(c1ccc2[nH]ccc2c1)c1ccc2[nH]ccc2c1` [compound 111, [3,3-Bis-(1H-indol-5-yl)-propyl]-methyl-amine] displayed a melting point of 142 to 152 °C. For `NCCC(c1ccc2ncccc2c1)c1ccc2[nH]ccc2c1` (stereo not shown) [compound 120, 3-(1H-Indol-5-yl)-3-quinolin-6-yl-propylamine] the value was 60.9 to 62.9 °C. For `CNCCC(c1ccc2[nH]ccc2c1)c1ccc2nccnc2c1` (stereo not shown) [compound 123, [3-(1H-lndol-5-yl)-3-quinoxalin-6-yl-propyl]-methyl-amine] the value was 60.3 to 62 °C; for `CNCCC(c1cnc2ccccc2c1)c1ccc2[nH]ccc2c1` (stereo not shown) [compound 137, [3-(1H-Indol-5-yl)-3-quinolin-3-yl-propyl]-methyl-amine], 56 to 58 °C.
